The values that follow come from patent US6727237B2, “Inhibitors of bacterial NAD synthetase” (priority 1998, dated 2004).

Structures are written as SMILES. Read-outs that look alike come from different tables or passages of the source.

This test concerns the target T1, bacterial NAD synthetase enzyme (Bacillus subtilis, UniProt P08164).
T1 sequence (P08164 2-272 limits assumed): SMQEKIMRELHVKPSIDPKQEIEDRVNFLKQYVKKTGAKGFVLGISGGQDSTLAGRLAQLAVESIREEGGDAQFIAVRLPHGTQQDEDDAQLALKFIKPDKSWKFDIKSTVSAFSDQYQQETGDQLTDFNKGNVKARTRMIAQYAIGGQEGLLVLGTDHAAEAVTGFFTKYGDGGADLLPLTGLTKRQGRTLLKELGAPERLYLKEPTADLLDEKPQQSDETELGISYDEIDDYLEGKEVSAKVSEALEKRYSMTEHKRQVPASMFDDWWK
As to the kind of experiment: biochemical. Format: biochemical.

[1] abbreviates: compound at 0.2 mM (Table 312B).
Setting [2] is: compound at 0.2 mM (Table 312A).

As usually defined, the % Inhibition is the share of the control response that was lost under treatment. High values mean a strong effect, low ones a weak effect. As for `C[n+]1cccc(C(=O)OCCCCCCCCOc2ccc(N3C(=O)c4ccccc4C3=O)cc2)c1` [compound 1071], the “% Inhibition” value under setting [1] is 55%.

The term inhibition denotes the drop in the measured response relative to a control, in per cent. The low end stands for little suppression, the high end for strong suppression. Molecule `C[N+](C)(C)c1ccc(CC(=O)OCCCCCCCCOc2cccc(OC(=O)c3ccccc3)c2)cc1` [Compound 1079] returned an IC50 of 36.2 µM and an inhibition at 200 µM of 97%.

As for `CC(C)c1ccc2[nH]c(CCCCC[n+]3ccccc3)cc2c1` [Compound 320], for the setting “compound at 0.1 mM (Table 314)”, the “% Inhibition” value was found to be 44.72%.

`COC(=O)c1cc2cc(OCc3ccccc3)ccc2n1CCCCCCOC(=O)c1ccc[n+](C)c1` [Compound 975] displayed an IC50 of 38 µM and an inhibition at 100 µM of 55.2%.

In the case of `COC(=O)c1cc2cc(OCc3ccccc3)ccc2n1CCCCCCCCOC(=O)Cc1ccc(N(C)C)cc1` [Compound 965], where the note is “compound at 0.1 mM (Table 314)”, the “% Inhibition” value amounted to 8.48%.

As to `CN(C)c1ccc(CC(=O)OCCCCCn2ccc3cc([N+](=O)[O-])ccc32)cc1` [Compound 849], the “% Inhibition” value (compound at 0.1 mM (Table 314)) turned out to be 90.92%. Besides, the IC50 (lead compounds (Table 318A), read-out: IC 50) came to 70 µM.

For `CCCCc1ccc2[nH]c(CCCC[n+]3ccccc3)cc2c1` [Compound 313], the “% Inhibition” value (compound at 0.1 mM (Table 314)) is 27.37%.

As to `CC(=O)c1ccc2[nH]c(CCCC[n+]3ccc4ccccc4c3)cc2c1` [Compound 583], the “% Inhibition” value under setting [2] was determined as 31.37%.

On to `C[n+]1cccc(C(=O)OCCCCCCCCOc2ccc(OC(=O)c3ccccc3)cc2)c1` [compound 1062], for which the “% Inhibition” value under setting [1] worked out at 18%.

With `CC(=O)c1ccccc1OCCCCCCCCOC(=O)Cc1ccc([N+](C)(C)C)cc1` [Compound 1076], the IC50 was 135 µM and the inhibition at 200 µM came to 74%.

For the molecule `CC(C)c1ccc2[nH]c(CCCCOC(=O)c3cc[n+](C)cc3)cc2c1` [Compound 904], the “% Inhibition” value (compound at 0.1 mM (Table 314)) was 47.68%.

`CN(C)c1ccc(CC(=O)OCCCCCCCCOc2ccccc2N2CCCC2)cc1` [Compound 1046]: the “% Inhibition” value under setting [1] was 2%.

Regarding `CC(=O)c1cccc(OCCCCCCCCOC(=O)Cc2ccc([N+](C)(C)C)cc2)c1` [Compound 1089], the “% Inhibition” value under setting [1] amounted to 56%.

`CC(=O)c1ccc2[nH]c(CCC[n+]3cccc4ccccc43)cc2c1` [Compound 474]: the “% Inhibition” value under setting [2] is recorded as 2.45%.

With `c1ccc(-c2ccc3[nH]c(CCCCCCCC[n+]4ccccc4)cc3c2)cc1` [Compound 329], the “% Inhibition” value under setting [2] is reported as 30.77%.

As to `Fc1ccc2[nH]c(CCCC[n+]3ccccc3)cc2c1` [Compound 343], the “% Inhibition” value under setting [2] stood at 10.82%.

With `COC(=O)c1cc2cc(OCc3ccccc3)ccc2n1CCCCCCCCOC(=O)Cc1ccc([N+](C)(C)C)cc1` [Compound 989], the “% Inhibition” value (compound at 0.1 mM (Table 314)) stood at 54.83%.

In the case of `O=C(c1ccccc1)c1ccc2[nH]c(CCC[n+]3ccccc3)cc2c1` [Compound 354], the “% Inhibition” value under setting [2] is 2.96%.

For `Cc1ccc2[nH]c(CCCCCCC[n+]3ccc4ccccc4c3)cc2c1` [Compound 514], the “% Inhibition” value under setting [2] is on record as 22.32%.

`c1ccc2c[n+](CCCCCCCc3cc4ccccc4[nH]3)ccc2c1` [Compound 502]: under setting [2], the “% Inhibition” value is reported as 44.08%.

For `CC(=O)c1cccc(OCCCCCCCCOC(=O)c2ccc[n+](C)c2)c1` [compound 1069], the “% Inhibition” value under setting [1] was determined as 36%.

With `Fc1ccc2[nH]c(CCCCCC[n+]3ccc4ccccc4c3)cc2c1` [Compound 561], under setting [2], the “% Inhibition” value came out at 24.70%.

On to `COC(=O)c1cc2cc(OCc3ccccc3)ccc2n1CCCCCCCCCOC(=O)Cc1ccc(N(C)C)cc1` [Compound 966], for which the “% Inhibition” value (compound at 0.05 mM) amounted to 8.25%.

As to `O=C(c1ccccc1)c1ccc2[nH]c(CCCCCCC[n+]3cccc4ccccc43)cc2c1` [Compound 466], the “% Inhibition” value under setting [2] was 5.79%.

For the molecule `C[N+](C)(C)c1cccc(C(=O)OCCCCCCCc2cc3cc(C(=O)c4ccccc4)ccc3[nH]2)c1` [Compound 881], where the note is “compound at 0.1 mM (Table 314)”, the “% Inhibition” value was 90.89%.

In the case of `C[n+]1cccc(C(=O)OCCCCCCCCOc2ccccc2C(=O)Nc2ccccc2)c1` [compound 3054], the “% Inhibition” value under setting [1] came to 86%.

Consider `C[n+]1cccc(C(=O)OCCCCCCCCc2cc3cc(C(=O)c4ccccc4)ccc3[nH]2)c1` [Compound 927], for which the “% Inhibition” value (compound at 0.25 mM) came out at 93.1%.

`C[N+](C)(C)c1cccc(C(=O)OCCCCCCCc2cc3ccc(C(F)(F)F)cc3[nH]2)c1` [Compound 869] gave an IC50 of 40 µM.

As to `O=C(O)c1ccc2[nH]c(CCC[n+]3ccccc3)cc2c1` [Compound 384], under setting [2], the “% Inhibition” value is given as 4.10%.

Turning to `O=[N+]([O-])c1cc([N+](=O)[O-])c2[nH]c(CCCCCCCC[n+]3cccc4ccccc43)cc2c1` [Compound 419], the “% Inhibition” value under setting [2] is 24.28%.

Turning to `O=C(OCCCCCCCCOc1ccc([N+](=O)[O-])cc1)c1cccnc1` [Compound 995], under setting [1], the “% Inhibition” value is recorded as 27%.

For the molecule `C[N+](C)(C)c1ccc(C(=O)OCCCCc2cc3cc(Oc4ccccc4)ccc3[nH]2)cc1` [Compound 886], the IC50 was determined as 80 µM and the inhibition at 100 µM stood at 94.5%.

For `CC(C)c1ccc2[nH]c(CCCC[n+]3ccccc3)cc2c1` [Compound 319], the “% Inhibition” value (compound at 0.1 mM (Table 314)) was determined as 16.99%.

With `CN(C)c1ccc(CC(=O)OCCCCCCCCOc2ccc(C=CC(=O)c3ccccc3)cc2)cc1` [Compound 1034], under setting [1], the “% Inhibition” value was 30%.

Molecule `C[N+](C)(C)c1cccc(C(=O)OCCCCCCCc2cc3cc(Oc4ccccc4)ccc3[nH]2)c1` [Compound 872] gave an IC50 of 50 µM and an inhibition at 100 µM of 98.3%.

The molecule `C[n+]1cccc(C(=O)OCCCCCCCc2cc3cc(Oc4ccccc4)ccc3[nH]2)c1` [Compound 917] displayed an IC50 of 60 µM and an inhibition at 250 µM of 88.9%.

On to `CC(=O)c1ccc2[nH]c(CCCCCCCCOC(=O)c3cc[n+](C)cc3)cc2c1` [Compound 909], for which the IC50 worked out at 25 µM and 100 µM produced 97.2% inhibition.

With `c1ccc(-c2ccc3[nH]c(CCCC[n+]4ccc5ccccc5c4)cc3c2)cc1` [Compound 541], the “% Inhibition” value (compound at 0.1 mM (Table 314)) was 10.26%.

With `c1ccc(C(c2ccccc2)(c2ccccc2)c2ccc3[nH]c(CCCC[n+]4ccccc4)cc3c2)cc1` [Compound 337], the “% Inhibition” value (compound at 0.1 mM (Table 314)) is 35.94%.

In the case of `c1ccc2c[n+](CCCCc3cc4ccccc4[nH]3)ccc2c1` [Compound 499], the “% Inhibition” value under setting [2] is listed as 25.59%.

Molecule `CC(C)c1ccc2[nH]c(CCCCCCCOC(=O)c3cccc([N+](C)(C)C)c3)cc2c1` [Compound 875] gave an IC50 of 45 µM and an inhibition at 100 µM of 93.6%.

Consider `C[n+]1ccc(C(=O)OCCCCc2cc3cc(C(=O)c4ccccc4)ccc3[nH]2)cc1` [Compound 910], for which, where the note is “compound at 0.25 mM”, the “% Inhibition” value is listed as 88.5%.

`Fc1cc(F)c2[nH]c(CCC[n+]3ccc4ccccc4c3)cc2c1` [Compound 516]: the “% Inhibition” value under setting [2] is reported as 29.95%.

As for `O=[N+]([O-])c1ccc2[nH]c(CCC[n+]3ccc4ccccc4c3)cc2c1` [Compound 546], for the setting “compound at 0.1 mM (Table 314)”, the “% Inhibition” value came out at 4.72%.

`O=C(O)c1ccc2[nH]c(CCCCCC[n+]3cccc4ccccc43)cc2c1` [Compound 495]: under setting [2], the “% Inhibition” value is 6.80%.

On to `CCCCc1ccc2[nH]c(CCCC[n+]3cccc4ccccc43)cc2c1` [Compound 421], for which, under setting [2], the “% Inhibition” value is listed as 1.86%.

As for `C[N+](C)(C)c1ccc(CC(=O)OCCCCCCCn2ccc3ccccc32)cc1` [Compound 980], the “% Inhibition” value under setting [2] is listed as 74.86%.

Consider `O=C(O)c1ccc2[nH]c(CCCCCCCC[n+]3ccccc3)cc2c1` [Compound 389], for which the “% Inhibition” value under setting [2] is reported as 12.44%.

Take `C[n+]1ccc(C(=O)OCCCCCCCCc2cc3cc(C(=O)c4ccccc4)ccc3[nH]2)cc1` [Compound 912]: under “compound at 0.25 mM”, the “% Inhibition” value was found to be 27.6%.

Take `C[n+]1ccc(C(=O)OCCCCCCCCc2cc3cc(Oc4ccccc4)ccc3[nH]2)cc1` [Compound 903]: the “% Inhibition” value (compound at 0.25 mM) turned out to be 95.5%.

Consider `COc1ccccc1OCCCCCCCCOC(=O)c1cccnc1` [Compound 1012], for which the “% Inhibition” value under setting [1] turned out to be 2%.

Turning to `CC(C)c1ccc2[nH]c(CCCCCCCCOC(=O)c3ccc[n+](C)c3)cc2c1` [Compound 921], the IC50 is 25 µM and the inhibition at 100 µM was found to be 96.7%.

Regarding `CCCCc1ccc2[nH]c(CCC[n+]3ccc4ccccc4c3)cc2c1` [Compound 528], the “% Inhibition” value under setting [2] is recorded as 65.81%.

Consider `c1ccc2c[n+](CCCc3cc4ccccc4[nH]3)ccc2c1` [Compound 498], for which, under setting [2], the “% Inhibition” value is 47.31%.

`C[N+](C)(C)c1ccc(CC(=O)OCCCCCCCCn2ccc3ccccc32)cc1` [Compound 981] returned an IC50 of 60 µM and an inhibition at 200 µM of 95.2%.

Take `C[N+](C)(C)c1ccc(C(=O)OCCCCCCCCc2cc3cc(Oc4ccccc4)ccc3[nH]2)cc1` [Compound 888]: the “% Inhibition” value (compound at 0.25 mM) was determined as 99.0%.

With `O=[N+]([O-])c1cc([N+](=O)[O-])c2[nH]c(CCCCCCCC[n+]3ccccc3)cc2c1` [Compound 311], the “% Inhibition” value under setting [2] is 29.67%.

Consider `Fc1cc(F)c2[nH]c(CCCCCCC[n+]3ccc4ccccc4c3)cc2c1` [Compound 520], for which, under setting [2], the “% Inhibition” value amounted to 55.83%.

Turning to `C[N+](C)(C)c1ccc(CC(=O)OCCCCCCCCOc2ccccc2[N+](=O)[O-])cc1` [Compound 1075], for the setting “NAD synthetase enzyme inhibition, read-out: IC50 of Compounds”, the IC50 stood at 65 µM. For the same molecule, the “% Inhibition” value under setting [1] is 79%.

`CC(=O)c1ccc2[nH]c(CCCCOC(=O)c3cccc([N+](C)(C)C)c3)cc2c1` [Compound 877]: where the note is “compound at 0.25 mM”, the “% Inhibition” value is listed as 98.3%.

As to `C[N+](C)(C)c1ccc(CC(=O)OCCCCCCn2ccc3ccccc32)cc1` [Compound 979], the “% Inhibition” value under setting [2] was found to be 38.72%.

As to `C[n+]1cccc(C(=O)OCCCCCCCn2ccc3ccccc32)c1` [Compound 968], the “% Inhibition” value under setting [2] is reported as 88.52%.

For the molecule `CN(C)c1ccc(CC(=O)OCCCCCCCCOc2ccccc2[N+](=O)[O-])cc1` [Compound 1024], the “% Inhibition” value under setting [1] worked out at 45%.

With `COC(=O)c1cc2ccccc2n1CCCCCCCOC(=O)Cc1ccc(N(C)C)cc1` [Compound 960], the “% Inhibition” value (compound at 0.05 mM) came out at 6.37%.
